Measured values as given in paper PMC9388626, “STUB1 is an intracellular checkpoint for interferon gamma sensing” (Scientific Reports, 2022).
Values belong to the molecule of their own block, whether it stands above or below them. Peptide text beside a SMILES is read from it.

Tests used:
STUB1 (aa25–aa153) [1] = target: T1, STUB1 (aa25–aa153) (Homo sapiens, UniProt Q9UNE7); experiment: Competitive fluorescence polarization assay; format: binding; conditions: 15 nM 5-FAM-[…] tracer, 1 µM STUB1, PBS pH 7.4, 0.01% Tween 20, room temperature, 30 min; mean ± s.e., six replicates from two independent experiments
T1 sequence (Q9UNE7 25-153): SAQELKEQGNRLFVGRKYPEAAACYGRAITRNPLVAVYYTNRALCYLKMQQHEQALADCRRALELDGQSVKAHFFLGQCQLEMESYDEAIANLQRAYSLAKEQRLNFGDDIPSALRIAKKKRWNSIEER
Description: The assays were performed at room temperature using assay buffer (PBS, pH 7.4, 0.01% v/v Tween 20) and black 384-well non-binding polystyrene microplate (Greiner Bio-one, #784900). The peptide of interest was first diluted (10-point, threefold serial dilution) with the assay buffer on the microplate to have a volume of 10 µl in each well. This was followed by the addition of 10 µl mixture containing 5-FAM-[…]-CO2H (30 nM) and the recombinant STUB1 protein (2 µM). The final assay solution (20 µl) contains 5-FAM-labeled tracer peptide (15 nM), protein (1 µM) and peptide of interest (5 nM to 100 µM). After 30 min incubation in the dark, the microplate was read with TECAN Infinite M1000 PRO (Ex: 470 nm, Em: 520 nm, bandwidth: 5 nm, G-factor = 1.05, gain: optimal, #flashes = 10, settle time = 0 ms, z position: calculated from well). Value of polarization (mP) = 1000 × (G × intensity‖ − intensity ⊥ )/(G × intensity‖ + intensity ⊥ ). Half maximal inhibitory concentration (IC50) was determined by fitting the curve using 4-parameter sigmoidal function in GraphPad Prism. Each independent experiment was performed in technical triplicates.

STUB1 (aa25–aa153) [2] = target: T1, STUB1 (aa25–aa153); experiment: Isothermal titration calorimetry; format: binding; conditions: ITC
Description: Recombinant STUB1 protein, spanning aa25-aa153, was produced by Nanyang Technological University protein production platform. The purity and identity of the protein was confirmed by mass spectrometry and SDS-PAGE. Synthetic peptides, in a form of N-acetylation and free C-terminal carboxylic acid, were custom made by Chinese Peptide Company (CPC). The purity and identity of the peptides were confirmed by analytic HPLC (≥ 95% purity) and mass spectrometry. Peptides are dissolved in neat DMSO as 10 mM stock solution and diluted thereof for subsequent experiments.
Recombinant STUB1 protein (aa25-aa153) was dialyzed overnight with Slide-A-Lyzer cassette (7 K MWCO, Thermo Scientific, #66373) in 1 L of dialysis buffer (PBS, pH 7.4, 0.5 mM TCEP). The dialyzed protein solution was centrifuged at 15,000 rpm for 10 min at 4 °C to remove potential precipiates. The protein was diluted to 20 µM using the dialysis buffer, followed by the additon of DMSO spike-in (2% final concentration). The synthetic peptides (10 mM in DMSO) were diluted to 200 µM with the dialysis buffer (2% final DMSO concentration). ITC measurements were performed at 25 °C using a Microcal PEAQ-ITC (Malvern Panalytical Inc). An initial injection of 0.4 µl followed by a total of 39 injections of peptide solution (1 µl, 200 µM) were added at an intervals of 2 min into the protein solution (20 µM) while stirring at 750 rpm. The data point produced by the first injection was discarded prior to curve fitting in order to account for the diffusion effect during the equilibration process. The experimental data were fitted to a non-interacting one-site binding model using the analysis software supplied by Microcal, with ΔH (enthalpy change), Ka (association constant) and N (number of binding sites per monomer) as adjustable parameters. Free energy change (ΔG) and entropy contributions (TΔS) were determined from the standard equation: ΔG = ΔH − TΔS = − RT lnKa, where T is the absolute temperature and R = 1.987 cal mol^−1 K^−1.

STUB1 (aa25-aa153) = experiment: Thermal shift assay (SYPRO Orange); format: binding; conditions: 100 µM peptide, 10 µM protein, relative to DMSO vehicle, mean ± s.d. from three independent experiments
Excerpt: The SYPRO Orange fluorescent dye (Invitrogen) was used to measure the thermal stability of recombinant STUB1 protein (aa25-aa153). With increasing temperature, binding of the dye molecule to the hydrophobic region of the denatured STUB1 results in an increase in the fluorescence intensity. The midpoint of this transition is termed the Tm. Binding of a ligand, such as peptide, stabilizes the protein and results in a melting temperature shift (ΔTm), which correlates with the binding affinity of the ligand. The thermal shift assay was conducted in a CFX96 real-time PCR detection system (Bio-Rad). A total of 50 µl mixture containing 3.125 × SYPRO Orange (Invitrogen, diluted from 5000 × DMSO stock), 100 µM peptide of interest, and 10 µM protein was prepared in a PCR 8-well strip tube. The samples were heated from 25 to 95 °C in 0.5 °C increment each cycle. The holding time for each cycle is 5 s, after which the fluorescence intensity was measured in Channel 2 (HEX) with Ex/Em: 515–535/560–580 nm. Each independent experiment was performed in technical duplicates.

STUB1 [3] = experiment: Co-immunoprecipitation of FLAG-mCherry2-peptide and STUB1; format: binding, murine; conditions: spiked into co-IP mixture, room temperature, 4 h
Description: B16-F10 cells stably expressing the biologic were harvested, rinsed with PBS, and lysed with chilled cell lysis buffer (Cell Signaling Technology, #9803) supplemented with Halt protease inhibitor cocktail (Life Technologies, #78430) and phosphatase inhibitor (Sigma-Aldrich, # 4906837001). Cellular lysates were clarified by centrifugation at 15,000 rpm at 4 °C for 15 min. Protein concentration was determined using BCA protein assay kit (Pierce, #23225). For each sample of the co-immunoprecipitation (co-IP), 20 µl of anti-FLAG magnetic beads (Sigma-Aldrich, M8823) was rinsed twice with 0.2 ml PBS, followed by addition of 500 µl diluted cellular lysate (60 µg, 0.12 µg µl^−1). For competitive inhibition, synthetic peptide (SIWWPD) was added into the co-IP mixture. The resulting mixture was rotated at room temperature for 4 h, after which the beads were rinsed with 3 × 0.5 ml PBS to remove the unbound proteins. Bound protein complexes were directly eluted with a 20 µl solution of LDS sample buffer (Life Technologies, NP0008) supplemented with sample reducing agent (Life Technologies, NP0009), followed by heating at 70 °C for 10 min. […] Blotting was similar to the Western Blot section described above. Primary antibodies used were: STUB1/CHIP (Cell Signaling Technology, #2080, 1:1000 dilution), FLAG (Sigma-Aldrich, F1804, 1:1000 dilution). […]

STUB1 [4] = tested on: STUB1; parameters: method as in PMID 31320752; conditions: cited from earlier work
[5] = target: T2, Recombinant STUB1 protein, spanning aa25-aa153 (UniProt Q9UNE7 25-153); experiment: FP
T2 chain: T1 sequence (Q9UNE7 25-153)

[6] = target: T2, Recombinant STUB1 protein, spanning …; experiment: ITC
[7] = target: T3, Recombinant STUB1 protein, spanning aa25-aa153 (UniProt Q9UNE7 25-153); experiment: thermal shift assay; SYPRO Orange; 100 µM peptide, 10 µM STUB1 aa25-aa153; heated from 25 to 95 °C in 0.5 °C increments; conditions: both partners purified
T3 construct: STUB1 (E3 ligase, also STUB1/CHIP), residues 25-153; also called STUB1 (aa25–aa153); CHIP; source: recombinant, produced by Nanyang Technological University protein production platform; purity and identity confirmed by mass spectrometry and SDS-PAGE
T3 sequence (looked up): T1 sequence (Q9UNE7 25-153)

[8] = target: T3, Recombinant STUB1 protein, spanning …; experiment: fluorescence polarisation; competitive; 15 nM tracer 5-FAM-…, 1 µM STUB1 aa25-aa153, peptide of interest 5 nM to 100 µM; room temperature; PBS pH 7.4, 0.01% v/v Tween 20; 30 min incubation; conditions: both partners purified
[9] = target: T3, Recombinant STUB1 protein, spanning …; experiment: ITC; peptide (200 µM) injected into STUB1 aa25-aa153 (20 µM); 25 °C; PBS pH 7.4, 0.5 mM TCEP, 2% DMSO; one-site binding model; conditions: both partners purified

Molecule: CC[C@H](C)[C@H](NC(=O)[C@H](CO)NC(C)=O)C(=O)N[C@@H](Cc1c[nH]c2ccccc12)C(=O)N[C@@H](Cc1c[nH]c2ccccc12)C(=O)N[C@@H](Cc1c[nH]cn1)C(=O)N[C@@H](CCCNC(=N)N)C(=O)O [SIWWHR] (Ac-SIWWHR-OH)
IC50 (STUB1 (aa25–aa153) [1]): > 100 µM
Binding to STUB1 (STUB1 (aa25–aa153) [2]): non-binding
Kd (STUB1 (aa25–aa153) [2]; PBS pH 7.4, 0.5 mM TCEP, 2% DMSO, 25 °C, 200 µM peptide into 20 µM protein): > 10 µM
ΔTm (STUB1 (aa25-aa153)): -0.1 ± 0.2 °C

Molecule: CC[C@H](C)[C@H](NC(=O)[C@H](CO)NC(C)=O)C(=O)N[C@@H](Cc1c[nH]c2ccccc12)C(=O)N[C@@H](Cc1c[nH]c2ccccc12)C(=O)N1CCC[C@H]1C(=O)N[C@@H](CC(=O)O)C(=O)O [SIWWPD, reference compound] (Ac-SIWWPD-OH)
Reversal of co-immunoprecipitation by synthetic peptide (STUB1 [3]): completely reversible in a dose-dependent manner
Binding to STUB1 (STUB1 (aa25–aa153) [2]): bound strongly to the protein
ΔTm (STUB1 (aa25-aa153)): 18.3 ± 0.1 °C
Blocking of STUB1 interaction with HSPA8 (STUB1 [4]): capable of blocking the interaction of STUB1 with HSPA8

Continued, in another order:

IC50 [5]: 2700 nM
Kd [6]: 2190 nM
Molecule: Ac-TIEEVD-OH

IC50 [8]: 340 nM
Kd [9]: 14 ± 2 nM
B1: synthetic inhibitory peptide SIWWPD (peptide)
peptide: Ac-SIWWPD-OH
notes: source: synthetic peptide, custom made by Chinese Peptide Company (CPC)
ΔTm [7]: 18.3 °C
